# Test results as given in US7608627B2, “6-azaindole compound” (Takeda Pharmaceutical Company Limited, priority 2005, dated 2009).
# Counter-ions that a name gives are not always drawn.
# Legend:
# IKKβ = molecular target: T1, IKKβ (Homo sapiens, UniProt O14920); assay: Determination of IKKβ inhibitory activity (32P uptake into IκBα substrate); assay type: biochemical; settings: active IKKβ 10 ng, IκBα substrate protein, [γ-32P]ATP, 30° C. for 60 min; 50% inhibition of 32P uptake by the acid insoluble fraction
# T1 construct: made in house; host or cells: Sf-21 insect cells, recombinant baculovirus BAC-IKKB (pFASTBAC1)
# T1 sequence (O14920 1-756): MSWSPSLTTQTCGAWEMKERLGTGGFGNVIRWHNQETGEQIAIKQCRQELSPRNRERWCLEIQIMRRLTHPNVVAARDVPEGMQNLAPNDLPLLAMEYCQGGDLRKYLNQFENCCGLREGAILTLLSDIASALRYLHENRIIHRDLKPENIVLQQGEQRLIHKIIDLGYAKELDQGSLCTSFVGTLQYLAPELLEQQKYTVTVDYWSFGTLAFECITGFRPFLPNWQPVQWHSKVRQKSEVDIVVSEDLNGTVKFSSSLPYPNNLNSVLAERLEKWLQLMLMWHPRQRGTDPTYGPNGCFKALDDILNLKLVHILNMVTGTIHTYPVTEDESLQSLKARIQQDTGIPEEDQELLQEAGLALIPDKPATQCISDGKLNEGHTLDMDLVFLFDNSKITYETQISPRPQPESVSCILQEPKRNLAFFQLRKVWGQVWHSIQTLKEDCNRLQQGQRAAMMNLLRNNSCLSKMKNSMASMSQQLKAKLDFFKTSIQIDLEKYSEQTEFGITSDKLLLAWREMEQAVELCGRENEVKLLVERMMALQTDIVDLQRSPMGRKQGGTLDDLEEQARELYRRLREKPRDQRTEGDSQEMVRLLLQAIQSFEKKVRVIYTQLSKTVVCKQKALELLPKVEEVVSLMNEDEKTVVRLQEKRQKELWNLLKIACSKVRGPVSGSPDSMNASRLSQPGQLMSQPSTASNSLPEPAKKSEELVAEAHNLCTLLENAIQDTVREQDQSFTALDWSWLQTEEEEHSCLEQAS
# Protocol: To a reaction solution (37.5 μl, 25 mM HEPES (pH 7.5), 10 mM magnesium acetate) containing active IKKβ (10 ng) obtained in Reference Example 3A and 2.5 μg of IκBα substrate protein solution was added a test compound (2.5 μl) dissolved in DMSO, and the mixture was incubated at 30° C. for 5 min. To the obtained mixture was added 10 μl of ATP solution (2.5 μM ATP, 0.01 μCi [γ-^32P]ATP) and the mixture was allowed to react at 30° C. for 60 min. Then 20% TCA solution (50 μl) was added thereto to stop the reaction. The reaction solution was left standing at 4° C. for 20 min. and acid insoluble fraction was transferred to a GF/C filter (PACKARD JAPAN KK) using a cell harvester (PACKARD JAPAN KK) and washed with 250 mM phosphoric acid solution. The plate after washing was dried at 45° C. for 60 min., 40 μl of MicroSinti 0 (PACKARD JAPAN KK) was added and the radioactivity was determined using TopCount (PACKARD JAPAN KK). The concentration (IC50) of the test compound necessary for 50% inhibition of the amount of ^32P uptake by the acid insoluble fraction was calculated using PRISM 3.0 (GraphPad Software, Inc.).
SMILES,melting point,IC50 (IKKβ) [nM]
"O=C(NC(c1ccccc1)c1cc2ccncc2[nH]1)c1cccnc1 (stereo not shown) [Example 43, N-[Phenyl(1H-pyrrolo[2,3-c]pyridin-2-yl)methyl]nicotinamide]",178 to 188 °C,–
"OC(c1ccccc1)c1cc2ccnc(N(Cc3ccccc3)Cc3ccccc3)c2[nH]1 (stereo not shown) [Example 46, [7-(Dibenzylamino)-1H-pyrrolo[2,3-c]pyridin-2-yl](phenyl)methanol]",53 to 61 °C,–
"O=C(c1ccccc1)c1cc2ccnc(N(Cc3ccccc3)Cc3ccccc3)c2[nH]1 [Example 47, [7-(Dibenzylamino)-1H-pyrrolo[2,3-c]pyridin-2-yl](phenyl)methanone]",122 to 124 °C,–
"O=C(NC(c1ccccc1)c1cc2ccncc2[nH]1)c1ccncc1 (stereo not shown) [Example 49, N-[Phenyl (1H-pyrrolo[2,3-c]pyridin-2-yl)methyl]isonicotinamide]",182 to 192 °C,–
"O=C(NC(c1ccccc1)c1cc2ccncc2[nH]1)c1ccccn1 (stereo not shown) [Example 50, N-[Phenyl (1H-pyrrolo[2,3-c]pyridin-2-yl)methyl]-2-pyridinecarboxamide]",102 to 110 °C,–
"O=C(NC(c1ccccc1)c1cc2ccncc2[nH]1)c1ccccc1 (stereo not shown) [Example 51, N-[Phenyl(1H-pyrrolo[2,3-c]pyridin-2-yl)methyl]benzamide]",206 to 208 °C,–
"OC(c1ccccc1)c1cc2ccncc2[nH]1 (stereo not shown) [Example 52, Phenyl(1H-pyrrolo[2,3-c]pyridin-2-yl)methanol]",178 to 180 °C,–
"CC(C)(C)OC(=O)CO/N=C(\c1ccccc1)c1cc2ccncc2[nH]1 [Example 58, tert-Butyl[[[phenyl(1H-pyrrolo[2,3-c]pyridin-2-yl)methylene]amino]oxy]acetate]",47 to 52 °C,–
"CC(C)(C)OC(=O)NCCO/N=C(\c1ccccc1)c1cc2ccncc2[nH]1 [Example 60, tert-Butyl 2-[[[phenyl(1H-pyrrolo[2,3-c]pyridin-2-yl)methylene]amino]oxy]ethylcarbamate]",84 to 88 °C,–
"O=C(O)CO/N=C(\c1ccccc1)c1cc2ccncc2[nH]1 [Example 66, [[[Phenyl(1H-pyrrolo[2,3-c]pyridin-2-yl)methylene]amino]oxy]acetic acid]",68 to 73 °C,–
Cl.NCCO/N=C(\c1ccccc1)c1cc2ccncc2[nH]1 [Example 67],176 to 184 °C (dec.),–
"CC(=O)c1cc2ccncc2[nH]1 [Example 70, 1-(1H-Pyrrolo[2,3-c]pyridin-2-yl)ethanone]",236 to 242 °C (dec.),–
"O=C(c1ccccc1)c1cc2cc(Cl)ncc2[nH]1 [Example 73, (5-Chloro-1H-pyrrolo[2,3-c]pyridin-2-yl)(phenyl)methanone]",194 to 197 °C,–
"CC(C)(C)OC(=O)NCCCO/N=C(\c1ccccc1)c1cc2ccncc2[nH]1 [Example 76, tert-Butyl 3-[[[phenyl(1H-pyrrolo[2,3-c]pyridin-2-yl)methylene]amino]oxy]propylcarbamate]",52 to 58 °C,–
"CC(C)C(O)c1cc2ccncc2[nH]1 (stereo not shown) [Example 78, 2-Methyl-1-(1H-pyrrolo[2,3-c]pyridin-2-yl)-1-propanol]",140 to 144 °C,–

# Second part, the compound after the results:
melting point,IC50 (IKKβ) [nM],SMILES
182 to 189 °C (dec.),–,"CC(C)CC(O)c1cc2ccncc2[nH]1 (stereo not shown) [Example 79, 3-Methyl-1-(1H-pyrrolo[2,3-c]pyridin-2-yl)-1-butanol]"
224 to 228 °C,–,"CC(C)C(=O)c1cc2ccncc2[nH]1 [Example 80, 2-Methyl-1-(1H-pyrrolo[2,3-c]pyridin-2-yl)-1-propanone]"
215 to 218 °C,–,"CC(C)CC(=O)c1cc2ccncc2[nH]1 [Example 81, 3-Methyl-1-(1H-pyrrolo[2,3-c]pyridin-2-yl)-1-butanone]"
162 to 166 °C,–,"OC(CCc1ccccc1)c1cc2ccncc2[nH]1 (stereo not shown) [Example 83, 3-Phenyl-1-(1H-pyrrolo[2,3-c]pyridin-2-yl)propan-1-ol]"
169 to 172 °C (dec.),–,"OC(Cc1ccccc1)c1cc2ccncc2[nH]1 (stereo not shown) [Example 85, 2-Phenyl-1-(1H-pyrrolo[2,3-c]pyridin-2-yl)ethanol]"
246 to 250 °C,–,"O=C(CCc1ccccc1)c1cc2ccncc2[nH]1 [Example 89, 3-Phenyl-1-(1H-pyrrolo[2,3-c]pyridin-2-yl)propan-1-one]"
80 to 82 °C,–,"CC(C)(C)OC(=O)N1CCC(ON=C(c2ccccc2)c2cc3ccncc3[nH]2)C1 (stereo not shown) [Example 90, tert-Butyl 3-[[[phenyl(1H-pyrrolo[2,3-c]pyridin-2-yl)methylene]amino]oxy]pyrrolidine-1-carboxylate]"
–,1700,"c1ccc(C(=NOC2CCNC2)c2cc3ccncc3[nH]2)cc1 (stereo not shown) [Example 91, Phenyl (1H-pyrrolo[2,3-c]pyridin-2-yl)methanone O-pyrrolidin-3-yloxime dihydrochloride]"
161 to 165 °C (dec.),–,Cl.NCCO/N=C(\c1ccccc1)c1cc2ccncc2[nH]1 [Example 95]
78 to 82 °C,–,"Cc1ccc(C(O)c2cc3ccncc3[nH]2)cc1 (stereo not shown) [Example 98, (4-Methylphenyl)(1H-pyrrolo[2,3-c]pyridin-2-yl)methanol]"
183 to 185 °C (dec.),–,"COc1ccc(C(O)c2cc3ccncc3[nH]2)cc1 (stereo not shown) [Example 99, (4-Methoxyphenyl)(1H-pyrrolo[2,3-c]pyridin-2-yl)methanol]"
264 to 268 °C (dec.),–,"Cc1ccc(C(=O)c2cc3ccncc3[nH]2)cc1 [Example 100, (4-Methylphenyl)(1H-pyrrolo[2,3-c]pyridin-2-yl)methanone]"
176 to 180 °C,–,"OC(c1ccc(Cl)cc1)c1cc2ccncc2[nH]1 (stereo not shown) [Example 101, (4-Chlorophenyl)(1H-pyrrolo[2,3-c]pyridin-2-yl)methanol]"
225 to 228 °C,–,"COc1ccc(C(=O)c2cc3ccncc3[nH]2)cc1 [Example 102, (4-Methoxyphenyl)(1H-pyrrolo[2,3-c]pyridin-2-yl)methanone]"
274 to 277 °C (dec.),–,"O=C(c1ccc(Cl)cc1)c1cc2ccncc2[nH]1 [Example 103, (4-Chlorophenyl)(1H-pyrrolo[2,3-c]pyridin-2-yl)methanone]"
264 to 266 °C (dec.),–,"OC(c1ccc(Cl)c(Cl)c1)c1cc2ccncc2[nH]1 (stereo not shown) [Example 113, (3,4-Dichlorophenyl)(1H-pyrrolo[2,3-c]pyridin-2-yl)methanol]"
166 to 169 °C,–,"OC(c1ccccn1)c1cc2ccncc2[nH]1 (stereo not shown) [Example 117, (Pyridin-2-yl)(1H-pyrrolo[2,3-c]pyridin-2-yl)methanol]"
202 to 203 °C,–,CON=C(c1ccccc1)c1cc2ccncc2[nH]1.Cl [Example 120]
220 to 222 °C,–,CON=C(c1ccccc1)c1cc2ccncc2[nH]1.Cl [Example 121]
219 to 222 °C,–,"O=C(c1ccccn1)c1cc2ccncc2[nH]1 [Example 122, (Pyridin-2-yl)(1H-pyrrolo[2,3-c]pyridin-2-yl)methanone]"
274 to 277 °C (dec.),–,"O=C(c1ccc(Cl)c(Cl)c1)c1cc2ccncc2[nH]1 [Example 127, (3,4-Dichlorophenyl)(1H-pyrrolo[2,3-c]pyridin-2-yl)methanone]"
232 to 236 °C (dec.),–,"O=C(c1ccoc1)c1cc2ccncc2[nH]1 [Example 137, 3-Furyl(1H-pyrrolo[2,3-c]pyridin-2-yl)methanone]"
